Experimental data: ChEMBL document CHEMBL4406848, “Novel water soluble BODIPY compounds: Synthesis, photochemical, DNA interaction, topoisomerases inhibition and photodynamic activity properties” (Eur J Med Chem, 2019)
Active and inactive are the calls of the source. The rule behind the calls is not given here.

Experiments:
HCT-116 [1] = assay: Phototoxicity against human HCT116 cells assessed as cell viability at 50 uM incubated for 24 hrs under 17.5 mW/cm2 light irradiation by MTT assay relative to control; assay type: functional; conditions: HCT-116, light or radiation study, read-out: Activity
HCT-116 [2] = assay: Induction of apoptosis in human HCT116 cells assessed as viable cells at 10 uM incubated for 24 hrs in presence of irradiation by annexin V FITC and propidium iodide based flow cytometry (reference value: 94.8 %); assay type: functional; conditions: HCT-116, light or radiation study, read-out: Activity
[3] = molecular target: T1, DNA topoisomerase II (Homo sapiens) (UniProt P11388+Q02880); assay: Inhibition of recombinant human topoisomerase 2 at 12.5 uM incubated for 1 hr by ethidium bromide staining based agarose gel electrophoresis method relative to control; assay type: protein assay
HCT-116 [4] = assay: Phototoxicity against human HCT116 cells assessed as cell viability at 5 uM incubated for 24 hrs under 17.5 mW/cm2 light irradiation by MTT assay relative to control; assay type: functional; conditions: HCT-116, light or radiation study, read-out: Activity
HCT-116 [5] = assay: Phototoxicity against human HCT116 cells assessed as cell viability at 1 uM incubated for 24 hrs under 17.5 mW/cm2 light irradiation by MTT assay relative to control; assay type: functional; conditions: HCT-116, light or radiation study, read-out: Activity
HCT-116 [6] = assay: Cytotoxicity against human HCT116 cells assessed as cell viability at 0.5 uM incubated for 24 hrs in dark by MTT assay relative to control; assay type: functional; conditions: HCT-116, 24 h, read-out: Activity
Calf thymus DNA [7] = assay: Binding affinity to calf thymus DNA assessed as binding constant incubated for 10 mins by UV-visible spectrophotometry; assay type: nucleic-acid assay; conditions: Bos taurus
[8] = molecular target: T2, DNA topoisomerase 1 (Homo sapiens) (UniProt P11387); assay: Inhibition of recombinant human topoisomerase 1 at 25 uM incubated for 1 hr by ethidium bromide staining based agarose gel electrophoresis method relative to control
T2 sequence (whole entry): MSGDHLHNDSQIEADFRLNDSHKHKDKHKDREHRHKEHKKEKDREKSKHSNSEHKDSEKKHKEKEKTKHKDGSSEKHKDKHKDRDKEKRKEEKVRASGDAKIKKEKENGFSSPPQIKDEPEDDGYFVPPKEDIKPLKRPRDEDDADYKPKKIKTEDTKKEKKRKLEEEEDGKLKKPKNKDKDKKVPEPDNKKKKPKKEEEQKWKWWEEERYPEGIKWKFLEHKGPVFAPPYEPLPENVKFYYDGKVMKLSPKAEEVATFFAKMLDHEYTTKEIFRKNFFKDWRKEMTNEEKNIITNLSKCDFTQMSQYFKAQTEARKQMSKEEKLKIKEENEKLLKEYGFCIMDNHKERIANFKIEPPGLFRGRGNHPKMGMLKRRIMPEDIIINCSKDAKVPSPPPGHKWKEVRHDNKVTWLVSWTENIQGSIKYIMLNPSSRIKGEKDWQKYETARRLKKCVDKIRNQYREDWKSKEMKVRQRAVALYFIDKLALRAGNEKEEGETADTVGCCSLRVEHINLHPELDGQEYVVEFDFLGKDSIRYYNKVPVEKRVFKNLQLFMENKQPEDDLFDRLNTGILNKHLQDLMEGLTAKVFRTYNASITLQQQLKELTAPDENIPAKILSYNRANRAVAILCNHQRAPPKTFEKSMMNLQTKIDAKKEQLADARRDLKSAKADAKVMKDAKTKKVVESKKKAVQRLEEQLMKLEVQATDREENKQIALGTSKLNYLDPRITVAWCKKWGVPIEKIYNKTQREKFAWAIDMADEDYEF

[9] = molecular target: T2, DNA topoisomerase 1 (Homo sapiens); assay: Inhibition of recombinant human topoisomerase 1 at 12.50 uM incubated for 1 hr by ethidium bromide staining based agarose gel electrophoresis method relative to control
HCT-116 [10] = assay: Cytotoxicity against human HCT116 cells assessed as cell viability at 100 uM incubated for 24 hrs in dark by MTT assay relative to control; assay type: functional; conditions: HCT-116, 24 h, read-out: Activity
DNA [11] = assay: Induction of Escherichia coli plasmid pBR322 DNA cleavage assessed as decrease in supercoiled DNA at 3.125 uM in presence of light irradiation and incubated for 1 hr by agarose gel electrophoresis relative to control; assay type: nucleic-acid assay; parameters: scale not given: the % may be the effect or the level left
HCT-116 [12] = assay: Phototoxicity against human HCT116 cells assessed as cell viability at 0.5 uM incubated for 24 hrs under 17.5 mW/cm2 light irradiation by MTT assay relative to control; assay type: functional; conditions: HCT-116, light or radiation study, read-out: Activity
HCT-116 [13] = assay: Induction of apoptosis in human HCT116 cells assessed as necrotic cells at 10 uM incubated for 24 hrs in presence of irradiation by annexin V FITC and propidium iodide based flow cytometry (reference value: 0.2 %); assay type: functional
[14] = molecular target: T1, DNA topoisomerase II (Homo sapiens); assay: Inhibition of recombinant human topoisomerase 2 at 50 uM incubated for 1 hr by ethidium bromide staining based agarose gel electrophoresis method relative to control; assay type: protein assay
HCT-116 [15] = assay: Cytotoxicity against human HCT116 cells assessed as cell viability at 5 uM incubated for 24 hrs in dark by MTT assay relative to control; assay type: functional; conditions: HCT-116, 24 h, read-out: Activity
Calf thymus DNA [16] = assay: Competitive binding affinity to calf thymus DNA assessed as change in viscosity incubated for 10 mins by viscometer; assay type: nucleic-acid assay; conditions: Bos taurus
[17] = molecular target: T1, DNA topoisomerase II (Homo sapiens); assay: Inhibition of recombinant human topoisomerase 2 at 25 uM incubated for 1 hr by ethidium bromide staining based agarose gel electrophoresis method relative to control; assay type: protein assay
HCT-116 [18] = assay: Phototoxicity against human HCT116 cells assessed as cell viability at 10 uM incubated for 24 hrs under 17.5 mW/cm2 light irradiation by MTT assay relative to control; assay type: functional; conditions: HCT-116, light or radiation study, read-out: Activity
HCT-116 [19] = assay: Induction of apoptosis in human HCT116 cells assessed as early apoptotic cells at 10 uM incubated for 24 hrs in presence of irradiation by annexin V FITC and propidium iodide based flow cytometry (reference value: 3.4 %); assay type: functional
HCT-116 [20] = assay: Induction of apoptosis in human HCT116 cells assessed as late apoptotic cells at 10 uM incubated for 24 hrs in presence of irradiation by annexin V FITC and propidium iodide based flow cytometry (reference value: 1.6 %); assay type: functional
HCT-116 [21] = assay: Phototoxicity against human HCT116 cells assessed as reduction in cell viability incubated for 24 hrs under 17.5 mW/cm2 light irradiation by MTT assay; assay type: functional, cell-based; conditions: HCT-116, light or radiation study
[22] = molecular target: T1, DNA topoisomerase II (Homo sapiens); assay: Inhibition of recombinant human topoisomerase 2 assessed as supercoiled DNA at 50 uM incubated for 1 hr by ethidium bromide staining based agarose gel electrophoresis method relative to control; assay type: protein assay; parameters: scale not given: the % may be the effect or the level left
[23] = Photostability of compound in TBS assessed as percentage of photodegradation measured every 10 mins for 1 hr at 17.5 mW/cm'2 irradiation by UV-visible spectrophotometry
HCT-116 [24] = assay: Cytotoxicity against human HCT116 cells assessed as cell viability at 10 uM incubated for 24 hrs in dark by MTT assay relative to control; assay type: functional; conditions: HCT-116, 24 h, read-out: Activity
HCT-116 [25] = assay: Phototoxicity against human HCT116 cells assessed as cell viability at 100 uM incubated for 24 hrs under 17.5 mW/cm2 light irradiation by MTT assay relative to control; assay type: functional; conditions: HCT-116, light or radiation study, read-out: Activity
HCT-116 [26] = assay: Cytotoxicity against human HCT116 cells assessed as cell viability at 1 uM incubated for 24 hrs in dark by MTT assay relative to control; assay type: functional; conditions: HCT-116, 24 h, read-out: Activity
DNA [27] = assay: Induction of Escherichia coli plasmid pBR322 DNA cleavage at 3.125 to 25 uM incubated for 1 hr in dark by agarose gel electrophoresis; assay type: nucleic-acid assay
[28] = molecular target: T2, DNA topoisomerase 1 (Homo sapiens); assay: Inhibition of recombinant human topoisomerase 1 at 50 uM incubated for 1 hr by ethidium bromide staining based agarose gel electrophoresis method relative to control

Compound: CC1=CC(/C=C/c2ccc(OCCCc3ccc[n+](C)c3)cc2)=[N+]2C1=C(c1ccc(OCCCc3ccc[n+](C)c3)cc1)c1c(C)cc(/C=C/c3ccc(OCCCc4ccc[n+](C)c4)cc3)n1[B-]2(F)F.[I-].[I-].[I-]
- viability at 50 µM (HCT-116 [1]): 6%
- viability at 10 µM (HCT-116 [2]): 9.6%
- inhibition [3]: 54.6%
- viability at 5 µM (HCT-116 [4]): 25%
- viability at 1 µM (HCT-116 [5]): 97%
- viability at 0.5 µM (HCT-116 [6]): 100%
- Kb (Calf thymus DNA [7]): 1.87 ×10⁴ /M
- inhibition [8]: 88.6%
- inhibition [9]: 88.5%
- viability at 100 µM (HCT-116 [10]): 57%
- Activity (DNA [11]): 76.8%
- viability at 0.5 µM (HCT-116 [12]): 100%
- Activity (HCT-116 [13]): 3.4%
- inhibition [14]: 56.2%
- viability at 5 µM (HCT-116 [15]): 91%
- Activity (Calf thymus DNA [16]): Active
- inhibition [17]: 54.6%
- viability at 10 µM (HCT-116 [18]): 10%
- Activity (HCT-116 [19]): 54.4%
- Activity (HCT-116 [20]): 32.5%
- IC50 (HCT-116 [21]): 3.95 µM
- Activity [22]: 77.2%
- Drug degradation [23]: 17.7%
- viability at 10 µM (HCT-116 [24]): 88%
- viability at 100 µM (HCT-116 [25]): 0%
- viability at 1 µM (HCT-116 [26]): 100%
- Activity (DNA [27]): inactive
- inhibition [28]: 89%

Compound: CC1=CC(/C=C/c2ccc(OCCCc3ccc[n+](C)c3)c(OCCCc3ccc[n+](C)c3)c2)=[N+]2C1=C(c1ccc(OCCCc3ccc[n+](C)c3)c(OCCCc3ccc[n+](C)c3)c1)c1c(C)cc(/C=C/c3ccc(OCCCc4ccc[n+](C)c4)c(OCCCc4ccc[n+](C)c4)c3)n1[B-]2(F)F.[I-].[I-].[I-].[I-].[I-].[I-]
- viability at 50 µM (HCT-116 [1]): 85%
- viability at 10 µM (HCT-116 [2]): 95.5%
- inhibition [3]: 56.4%
- viability at 5 µM (HCT-116 [4]): 100%
- viability at 1 µM (HCT-116 [5]): 100%
- viability at 0.5 µM (HCT-116 [6]): 100%
- Kb (Calf thymus DNA [7]): 1.59 ×10³ /M
- inhibition [8]: 89.4%
- inhibition [9]: 89.1%
- viability at 100 µM (HCT-116 [10]): 90%
- Activity (DNA [11]): 58.5%
- viability at 0.5 µM (HCT-116 [12]): 100%
- Activity (HCT-116 [13]): 0.1%
- inhibition [14]: 61.5%
- viability at 5 µM (HCT-116 [15]): 96%
- Activity (Calf thymus DNA [16]): Active
- inhibition [17]: 58.7%
- viability at 10 µM (HCT-116 [18]): 99%
- Activity (HCT-116 [19]): 3.3%
- Activity (HCT-116 [20]): 1%
- IC50 (HCT-116 [21]): > 100 µM
- Activity [22]: 87.7%
- Drug degradation [23]: 18.7%
- viability at 10 µM (HCT-116 [24]): 96%
- viability at 100 µM (HCT-116 [25]): 66%
- viability at 1 µM (HCT-116 [26]): 100%
- Activity (DNA [27]): inactive
- inhibition [28]: 89.9%
